This is an account of results in patent publication US20240270809A1, “ORAL GLP RECEPTOR AGONISTS” (priority 2020, published 2024).

Series [1] in a line: Stability of peptides in Fasted-State Simulated Intestinal Fluid (FaSSIF). The series is classed as in vitro ADME. Particulars: FaSSIF with 10 mg/ml pancreatin, 37° C.; for remaining at 0.25 h: FaSSIF pH 6.5 with 10 mg/ml pancreatin, t = 15 mins.
The target of the next series is T1, human GLP1 receptor (Homo sapiens, UniProt P43220).
T1 construct: expressed in transfected cells; host or cells: HEK cells, BacMam virus transduction
The series can be described thus: cAMP accumulation assay, functional agonism of human GLP1 receptor. The series is classed as cell-based. Particulars: HEK cells infected with human GLP1 receptor BacMam virus, HTRF cAMP; for Emax: HEK293, read-out: Human GLP-1R agonist cAMP Emax; for EC50: read-out: Human GLP-1R agonist cAMP pEC50 (converted). The method, boiled down: (§1)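 Agonist-driven cAMP production was quantified by homogeneous time-resolved fluorescence. Receptor expression in HEK cells came from a 24-hour BacMam infection, and cells were frozen ahead of the assay. Incubation lasted 45 min at 37° C in HBSS supplemented with 0.5 mM IBMX.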
A general note: Cyclic AMP is a second messenger, typically raised through Gs and lowered through Gi signalling.

The target in another series is T2, human GLP2 receptor (Homo sapiens, UniProt O95838).
T2 construct: expressed in transfected cells; host or cells: HEK cells, BacMam virus transduction
T2 sequence (O95838 1-553): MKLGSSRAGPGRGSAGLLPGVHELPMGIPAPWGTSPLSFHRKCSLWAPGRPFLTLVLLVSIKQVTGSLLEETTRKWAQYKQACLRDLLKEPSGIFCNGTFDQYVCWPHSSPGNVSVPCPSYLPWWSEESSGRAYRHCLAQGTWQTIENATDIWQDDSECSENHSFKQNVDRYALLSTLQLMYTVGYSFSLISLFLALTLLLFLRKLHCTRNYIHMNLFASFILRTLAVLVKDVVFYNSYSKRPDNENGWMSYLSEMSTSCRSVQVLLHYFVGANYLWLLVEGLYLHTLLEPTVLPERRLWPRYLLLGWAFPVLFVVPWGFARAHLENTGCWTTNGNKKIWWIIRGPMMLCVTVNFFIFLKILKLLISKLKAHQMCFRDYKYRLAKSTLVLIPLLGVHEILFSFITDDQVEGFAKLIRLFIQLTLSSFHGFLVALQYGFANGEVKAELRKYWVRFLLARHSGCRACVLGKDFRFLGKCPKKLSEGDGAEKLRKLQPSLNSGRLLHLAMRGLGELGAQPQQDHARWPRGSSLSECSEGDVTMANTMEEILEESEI
Briefly: cAMP accumulation assay, functional agonism of human GLP2 receptor. Particulars: HEK cells infected with human GLP2 receptor BacMam virus, HTRF cAMP; for Emax: HEK293, read-out: Human GLP-2R agonist cAMP Emax; for EC50: read-out: Human GLP-2R agonist cAMP pEC50 (converted). The series is classed as cell-based. In short, it runs like this: as §1

The next series has as its target T3, mouse GLP2 receptor (Mus musculus, UniProt Q5IXF8).
T3 construct: expressed in transfected cells; host or cells: HEK cells, transient transfection with GeneJuice
T3 sequence (Q5IXF8 1-512): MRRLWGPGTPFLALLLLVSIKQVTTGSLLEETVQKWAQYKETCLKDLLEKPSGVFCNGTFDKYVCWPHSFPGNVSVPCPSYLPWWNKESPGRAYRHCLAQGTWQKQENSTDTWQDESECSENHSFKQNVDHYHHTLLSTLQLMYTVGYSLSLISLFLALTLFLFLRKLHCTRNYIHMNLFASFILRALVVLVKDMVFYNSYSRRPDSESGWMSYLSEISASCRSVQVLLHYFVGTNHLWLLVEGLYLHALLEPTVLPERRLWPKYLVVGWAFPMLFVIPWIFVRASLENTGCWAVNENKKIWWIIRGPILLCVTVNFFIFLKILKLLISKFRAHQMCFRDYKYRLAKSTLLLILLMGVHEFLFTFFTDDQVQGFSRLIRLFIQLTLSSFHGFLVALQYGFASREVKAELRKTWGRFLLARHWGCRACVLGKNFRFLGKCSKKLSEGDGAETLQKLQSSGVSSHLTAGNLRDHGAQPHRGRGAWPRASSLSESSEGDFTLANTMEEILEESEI
Briefly: cAMP accumulation assay, functional agonism of mouse GLP2 receptor. The series is classed as cell-based. Particulars: HEK cells transiently transfected with mouse GLP2 receptor, HTRF cAMP. In short, it runs like this: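 pEC50 values come from four-parameter fits of HTRF cAMP signal, read after lysis and 1 h RT incubation. Compounds were incubated 45 min at 37 °C with previously frozen, transiently transfected HEK cells (8000/well) in HBSS containing 0.5 mM IBMX.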

Structures are written as SMILES. Positions of bridges follow the written chain, without caps; N, C: chain ends. Non-standard residues stand in square brackets, D forms with d. Residues, ends and D or L forms follow the SMILES beside them. *: point of attachment. Malonyl(2,2-Me2,histaminyl) = CC(C)(C(=O)NCCc1cnc[nH]1)C(=O)*; Ala(1H-tetrazol-5-yl) = N[C@@H](Cc1nnn[nH]1)C(=O)O; αMePhe(2-F) = C[C@](N)(Cc1ccccc1F)C(=O)O; Nle = CCCC[C@H](N)C(=O)O; Aib = CC(C)(N)C(=O)O

T1 sequence (P43220 24-463): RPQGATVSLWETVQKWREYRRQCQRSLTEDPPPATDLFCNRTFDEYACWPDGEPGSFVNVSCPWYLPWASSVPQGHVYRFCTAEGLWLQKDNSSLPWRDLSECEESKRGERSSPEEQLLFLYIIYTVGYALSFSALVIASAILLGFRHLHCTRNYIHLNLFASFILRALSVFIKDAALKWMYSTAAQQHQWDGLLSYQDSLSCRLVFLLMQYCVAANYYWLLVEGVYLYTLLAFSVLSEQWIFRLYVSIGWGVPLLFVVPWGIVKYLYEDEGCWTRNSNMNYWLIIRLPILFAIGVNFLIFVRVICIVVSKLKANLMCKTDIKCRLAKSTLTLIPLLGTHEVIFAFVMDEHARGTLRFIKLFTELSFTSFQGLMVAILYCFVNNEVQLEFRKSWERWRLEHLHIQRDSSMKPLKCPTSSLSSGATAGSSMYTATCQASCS

The term fraction remaining denotes what is left of the initial amount, in per cent. What is called Emax is the greatest response seen or fitted, relative to the assay's reference. Regarding `CCCC[C@@H]1NC(=O)[C@H](CCC(=O)O)NC(=O)[C@@H](NC(=O)[C@H](CO)NC(=O)[C@](C)(Cc2ccccc2F)NC(=O)[C@H](CO)NC(=O)[C@@H](C)NC(=O)[C@H](CC(=O)O)NC(=O)C(C)(C)NC(=O)[C@@H](N)Cc2c[nH]cn2)CCCCNC(=O)C[C@@H](C(=O)N[C@H](C(=O)N[C@@H](CC(C)C)C(=O)N[C@@H](CC(=O)O)C(=O)N[C@H]2CCC(=O)NCCCC[C@@H](C(=O)N[C@@H](CC(=O)O)C(=O)N[C@@H](Cc3ccccc3)C(=O)N[C@H](C(=O)N[C@@H](CC(N)=O)C(=O)N[C@@H](Cc3c[nH]c4ccccc34)C(=O)N[C@@H](CC(C)C)C(=O)N[C@H](C(=O)N[C@@H](CCC(N)=O)C(=O)N[C@H]3CCC(=O)NCCCC[C@@H](C(N)=O)NC(=O)[C@H]([C@@H](C)O)NC(=O)[C@H]([C@@H](C)CC)NC(=O)[C@H](CCCCN)NC3=O)[C@@H](C)CC)[C@@H](C)CC)NC(=O)[C@H](C)NC(=O)[C@H](C)NC(=O)[C@H](CCCCN)NC2=O)[C@@H](C)CC)NC(=O)[C@@H](Cc2ccccc2)NC1=O` [Example 19] (H-H[Aib]D[dA]S[αMePhe(2-F)]SKE[Nle][dF]DILDEKAAKDFINWLIQEKITK-NH2; lactam 8-12, 16-20, 29-33 (inferred); C-terminus assumed), the amount remaining at 0.5 h in series [1] (t=30 mins, pH 6.5, 10 mg/ml pancreatin) is 12.2%. Also, the maximum response (Emax) at human GLP1 receptor stood at 95.4%; on human GLP2 receptor it was 103%; at mouse GLP2 receptor (HEK293, read-out: Mouse GLP-2R agonist cAMP Emax), 101%. The results for the EC50 at human GLP1 receptor, at human GLP2 receptor and at mouse GLP2 receptor (read-out: Mouse GLP-2R agonist cAMP pEC50 (converted)) were 0.251 nM, 0.01 nM and 0.794 nM, respectively.

For `CCCC[C@H](NC(=O)[C@H](CCC(=O)O)NC(=O)[C@H](CC(=O)O)NC(=O)[C@H](CO)NC(=O)[C@H](Cc1ccccc1)NC(=O)[C@H](CO)NC(=O)CNC(=O)[C@H](Cc1nn[nH]n1)NC(=O)C(C)(C)C(=O)NCCc1c[nH]cn1)C(=O)N[C@H](Cc1ccccc1)C(=O)N[C@H](C(=O)N[C@H](C(=O)N[C@@H](CC(C)C)C(=O)N[C@@H](CC(=O)O)C(=O)N[C@H]1CCC(=O)NCCCC[C@@H](C(=O)N[C@@H](CC(=O)O)C(=O)N[C@@H](Cc2ccccc2)C(=O)N[C@H](C(=O)N[C@@H](CC(N)=O)C(=O)N[C@@H](Cc2c[nH]c3ccccc23)C(=O)N[C@@H](CC(C)C)C(=O)N[C@H](C(=O)N[C@@H](CCC(N)=O)C(=O)N[C@H](C(=O)N[C@H]2CCC(=O)NCCCC[C@@H](C(N)=O)NC(=O)[C@H]([C@@H](C)O)NC(=O)[C@H]([C@@H](C)CC)NC2=O)[C@@H](C)O)[C@@H](C)CC)[C@@H](C)CC)NC(=O)[C@H](C)NC(=O)[C@H](C)NC(=O)[C@H](CCCCN)NC1=O)[C@@H](C)CC)[C@@H](C)O` [Example 107] ({Malonyl(2,2-Me2,histaminyl)}-[Ala(1H-tetrazol-5-yl)]GSFSDE[Nle][dF]TILDEKAAKDFINWLIQTEITK-NH2; lactam 14-18, 28-31), the share remaining at 0.25 h in series [1] was 7.4%. Also, on human GLP1 receptor, the Emax is 96.9% and the EC50 was 0.02 nM. On human GLP2 receptor, the Emax was 101% and the EC50 is 0.02 nM.

Regarding `CCCC[C@H](NC(=O)[C@H](CCC(=O)O)NC(=O)[C@H](CC(=O)O)NC(=O)[C@H](CO)NC(=O)[C@H](Cc1ccccc1)NC(=O)[C@H](CO)NC(=O)CNC(=O)[C@H](Cc1nn[nH]n1)NC(=O)C(C)(C)C(=O)NCCc1c[nH]cn1)C(=O)N[C@H](Cc1ccccc1)C(=O)N[C@H]1CCCCNC(=O)C[C@@H](C(=O)N[C@@H](CCCCN)C(=O)N[C@@H](C)C(=O)N[C@@H](C)C(=O)NC(C)(C)C(=O)N[C@@H](CC(=O)O)C(=O)N[C@@H](Cc2ccccc2)C(=O)N[C@H](C(=O)N[C@@H](CC(N)=O)C(=O)N[C@@H](Cc2c[nH]c3ccccc23)C(=O)N[C@@H](CC(C)C)C(=O)N[C@H](C(=O)N[C@@H](CCC(N)=O)C(=O)N[C@H](C(=O)N[C@H]2CCC(=O)NCCCC[C@@H](C(N)=O)NC(=O)[C@H]([C@@H](C)O)NC(=O)[C@H]([C@@H](C)CC)NC2=O)[C@@H](C)O)[C@@H](C)CC)[C@@H](C)CC)NC(=O)[C@H](CC(=O)O)NC(=O)[C@H](CC(C)C)NC(=O)[C@H]([C@@H](C)CC)NC1=O` [Example 109] ({Malonyl(2,2-Me2,histaminyl)}-[Ala(1H-tetrazol-5-yl)]GSFSDE[Nle][dF]KILDDKAA[Aib]DFINWLIQTEITK-NH2; lactam 10-14, 28-31), in series [1], the fraction remaining at 0.25 h was 4.6%. Further, the Emax on human GLP1 receptor turned out to be 97%; at human GLP2 receptor, 102%. In addition, the EC50 was 0.0251 nM at human GLP1 receptor and 0.00794 nM at human GLP2 receptor.

Consider `CCCC[C@H](NC(=O)[C@H](CCC(=O)O)NC(=O)[C@@H]1CCCCNC(=O)CC[C@H](NC(=O)[C@H](CC(=O)O)NC(=O)C(C)(C)NC(=O)[C@@H](N)Cc2c[nH]cn2)C(=O)N[C@@H](CO)C(=O)N[C@@H](Cc2ccccc2)C(=O)N[C@@H](CO)C(=O)N1)C(=O)N[C@H](Cc1ccccc1)C(=O)N[C@H](C(=O)N[C@H](C(=O)N[C@@H](CC(C)C)C(=O)N[C@@H](CC(=O)O)C(=O)N[C@H]1CCCCNC(=O)C[C@@H](C(=O)N[C@@H](CC(=O)O)C(=O)N[C@@H](Cc2ccccc2)C(=O)N[C@H](C(=O)N[C@@H](CC(N)=O)C(=O)N[C@@H](Cc2c[nH]c3ccccc23)C(=O)N[C@@H](CC(C)C)C(=O)N[C@H](C(=O)N[C@@H](CCC(N)=O)C(=O)N[C@H](C(=O)N[C@@H](CCCCN)C(=O)N[C@H](C(=O)N[C@H](C(=O)N[C@@H](CC(=O)O)C(N)=O)[C@@H](C)O)[C@@H](C)CC)[C@@H](C)O)[C@@H](C)CC)[C@@H](C)CC)NC(=O)[C@H](C)NC(=O)[C@H](C)NC(=O)[C@H](CCCCN)NC1=O)[C@@H](C)CC)[C@@H](C)O` [Example 110] (H-H[Aib]DESFSKE[Nle][dF]TILDKKAADDFINWLIQTKITD-NH2; lactam 4-8, 16-20; N-terminus and C-terminus assumed), for which, in series [1], the fraction remaining at 0.25 h is 5%. At human GLP1 receptor, the Emax came to 88.1% and the EC50 is 3.98 nM. For the same compound, at human GLP2 receptor, the Emax was determined as 103% and the EC50 is 0.0158 nM.

Regarding `CCCC[C@@H]1NC(=O)[C@H](CCC(=O)O)NC(=O)[C@H](CC(=O)O)NC(=O)[C@@H](NC(=O)[C@H](Cc2ccccc2)NC(=O)[C@H](CO)NC(=O)CNC(=O)[C@H](CC(=O)O)NC(=O)C(C)(C)NC(=O)[C@@H](N)Cc2c[nH]cn2)CCC(=O)NCCCC[C@@H](C(=O)N[C@H](C(=O)N[C@H](C(=O)N[C@@H](CC(C)C)C(=O)N[C@@H](CC(=O)O)C(=O)N[C@@H](CC(C)C)C(=O)N[C@@H](CCCCN)C(=O)N[C@@H](C)C(=O)N[C@@H](C)C(=O)N[C@@H](CCCCN)C(=O)N[C@@H](CC(=O)O)C(=O)N[C@@H](Cc2ccccc2)C(=O)N[C@H](C(=O)N[C@@H](CC(N)=O)C(=O)N[C@@H](Cc2c[nH]c3ccccc23)C(=O)N[C@@H](CC(C)C)C(=O)N[C@H](C(=O)N[C@@H](CCC(N)=O)C(=O)N[C@H](C(=O)N[C@H]2CCC(=O)NCCCC[C@@H](C(N)=O)NC(=O)[C@H]([C@@H](C)O)NC(=O)[C@H]([C@@H](C)CC)NC2=O)[C@@H](C)O)[C@@H](C)CC)[C@@H](C)CC)[C@@H](C)CC)[C@@H](C)O)NC1=O` [Example 111] (H-H[Aib]DGSFEDE[Nle]KTILDLKAAKDFINWLIQTEITK-NH2; lactam 7-11, 30-33 (inferred); C-terminus assumed), in series [1], the fraction remaining at 0.25 h was 26.9%. For the same compound, at human GLP1 receptor, the Emax is 93.2% and the EC50 was 0.794 nM. Also, on human GLP2 receptor, the Emax turned out to be 104% and the EC50 is 0.631 nM.
